Source: patent USRE40086E1, “Method for treating bacterial infection with novel 7-substituted-9-substituted amino 6-demethyl-6-deoxytetracyclines” (Wyeth Holdings Corporation, priority 1991, dated 2008)
Structures can show the parent of a compound that is named as a salt.

Assays:
[1] = test system: E. coli UBMS 89-2 (Sensitive); assay: MIC, agar dilution; format: cell-based; conditions: E. coli UBMS 89-2 Tet Sens.; Table IA; unit assumed
[2] = test system: S. aureus UBMS 88-4 (Sensitive); assay: MIC, agar dilution; format: cell-based; conditions: S. aureus UBMS 88-4; Table IA; unit assumed
[3] = test system: S. aureus IVES 1983 (meth. resistant); assay: MIC, agar dilution; format: cell-based; conditions: S. aureus IVES 1983; Table IA; unit assumed
[4] = test system: S. haemolyticus AVAH 88-3; assay: MIC, agar dilution; format: cell-based; conditions: S. hemolyticus AVHAH 88-3; Table IA; unit assumed
E. coli BAJ9003 = assay: MIC, agar dilution (Table IA); format: cell-based; conditions: unit assumed
E. coli #311 (MP) = assay: MIC, agar dilution (Table IA); format: cell-based; conditions: unit assumed
[5] = test system: Wild Type S30 extract, E. coli strain MRE600 (tetracycline sensitive); assay: E. coli in vitro transcription and protein translation, 35S-methionine incorporation (Table VIII)
[6] = test system: S. aureus Smith (Sensitive); assay: MIC, agar dilution; format: cell-based; conditions: S. aureus SMITH (MP); Table IA; unit assumed
E. coli PRP1 TetA = assay: MIC, agar dilution (Table IA); format: cell-based; conditions: unit assumed
[7] = test system: TetM S30 extract, derivative of E. coli MRE600 containing the tetM determinant; assay: E. coli in vitro transcription and protein translation, 35S-methionine incorporation (Table VIII)
S. mariescens FDOR 8733 = assay: MIC, agar dilution (Table IA); format: cell-based; conditions: unit assumed
E. faecalis 12201 = assay: MIC, agar dilution; format: cell-based; conditions: Enterococcus 12201; Table IA; unit assumed
[8] = test system: S. aureus ATCC 29213 (Sensitive); assay: MIC, agar dilution; format: cell-based; conditions: S. aureus ATCC 29213; Table IA; unit assumed
[9] = test system: Ps. acruginosa ATCC 27853; assay: MIC, agar dilution (Table IA); format: cell-based; conditions: unit assumed
E. coli MC4100 TetB = assay: MIC, agar dilution (Table IA); format: cell-based; conditions: unit assumed
E. coli UBMS 89-1 (tetM) = assay: MIC, agar dilution; format: cell-based; conditions: E. coli UBMS 89-1 TetM; Table IA; unit assumed
E. coli UBMS 88-1 (tetB) = assay: MIC, agar dilution; format: cell-based; conditions: E. coli UBMS 88-1 TetB; Table IA; unit assumed
[10] = test system: S. aureus UBMS 90-3 (Sensitive); assay: MIC, agar dilution; format: cell-based; conditions: S. aureus UBMS 90-3; Table IA; unit assumed
E. coli UBMS 90-4 (tetM) = assay: MIC, agar dilution; format: cell-based; conditions: E. coli UBMS 90-4 TetM; Table IA; unit assumed
E. coli J3272 Tet sens. = assay: MIC, agar dilution (Table IA); format: cell-based; conditions: unit assumed
E. coli J2175 = assay: MIC, agar dilution (Table IA); format: cell-based; conditions: unit assumed
[11] = test system: S. aureus IVES 2943 (meth. resistant); assay: MIC, agar dilution; format: cell-based; conditions: S. aureus IVES 2943; Table IA; unit assumed
E. coli ATCC 25922 = assay: MIC, agar dilution; format: cell-based; conditions: E. coli ATCC 25922; Table IA; unit assumed
[12] = test system: S. aureus UBMS 90-2 (tetM); assay: MIC, agar dilution; format: cell-based; conditions: S. aureus UBMS 90-2 TetM; Table IA; unit assumed
E. coli J3272 TetD = assay: MIC, agar dilution (Table IA); format: cell-based; conditions: unit assumed
[13] = test system: S. aureus UBMS 88-5 (tetM); assay: MIC, agar dilution; format: cell-based; conditions: S. aureus UBMS 88-5 TetM; Table IA; unit assumed
S. aureus NEMC 8769/89-4 = assay: MIC, agar dilution (Table IA); format: cell-based; conditions: unit assumed
[14] = test system: X. maltophilia NEMC 87210; assay: MIC, agar dilution (Table IA); format: cell-based; conditions: unit assumed
E. coli UBMS 90-5 = assay: MIC, agar dilution (Table IA); format: cell-based; conditions: unit assumed
E. faecalis ATCC 29212 = assay: MIC, agar dilution; format: cell-based; conditions: E. faecalis ATCC 29212; Table IA; unit assumed
[15] = test system: S. aureus UBMS 88-7 (tetK); assay: MIC, agar dilution; format: cell-based; conditions: S. aureus UBMS 88-7 TetK; Table IA; unit assumed
S. aureus SMITH (sens) [16] = assay: In vivo antibacterial evaluation, acute lethal infection in mice; conditions: Oral
Text: In Vivo Antibacterial Evaluation (Table VII)

S. aureus SMITH (sens) [17] = assay: as above; conditions: Intraveneous
E. coli J3272 TetC = assay: MIC, agar dilution (Table IA); format: cell-based; conditions: unit assumed
[18] = test system: S. aureus UBMS 90-1 (tetM); assay: MIC, agar dilution; format: cell-based; conditions: S. aureus UBMS 90-1 TetM; Table IA; unit assumed
S. aureus ROSE (MP) = assay: MIC, agar dilution (Table IA); format: cell-based; conditions: unit assumed
E. coli MC4100 Tet sens. = assay: MIC, agar dilution (Table IA); format: cell-based; conditions: unit assumed

CC(C(=O)Nc1cc(N(C)C)c2c(c1O)C(=O)C1=C(O)[C@]3(O)C(=O)C(C(N)=O)=C(O)[C@@H](N(C)C)C3CC1C2)N(C)C.Cl.Cl (stereo partly drawn) [XX]
Antibacterial activity (MIC) [1]: 0.5 µg/mL
Antibacterial activity (MIC) [2]: 0.25 µg/mL
Antibacterial activity (MIC) [3]: 1 µg/mL
Antibacterial activity (MIC) [4]: 0.5 µg/mL
Antibacterial activity (MIC) (E. coli BAJ9003): 0.06 µg/mL
Antibacterial activity (MIC) (E. coli #311 (MP)): 0.5 µg/mL
% INHIBITION Wild Type S30 ([5]; 0.06 mg/ml): 85%
% INHIBITION Wild Type S30 ([5]; 0.2 mg/ml): 96%
% INHIBITION Wild Type S30 ([5]; 1.0 mg/ml): 98%
Antibacterial activity (MIC) [6]: 0.25 µg/mL
Antibacterial activity (MIC) (E. coli PRP1 TetA): 1 µg/mL
% INHIBITION TetM S30 ([7]; 0.06 mg/ml): 78%
% INHIBITION TetM S30 ([7]; 0.2 mg/ml): 89%
% INHIBITION TetM S30 ([7]; 1.0 mg/ml): 97%
Antibacterial activity (MIC) (S. mariescens FDOR 8733): 4 µg/mL
Antibacterial activity (MIC) (E. faecalis 12201): 0.12 µg/mL
Antibacterial activity (MIC) [8]: 0.25 µg/mL
Antibacterial activity (MIC) [9]: 32 µg/mL
Antibacterial activity (MIC) (E. coli MC4100 TetB): 1 µg/mL
Antibacterial activity (MIC) (E. coli UBMS 89-1 (tetM)): 0.12 µg/mL
Antibacterial activity (MIC) (E. coli UBMS 88-1 (tetB)): 0.5 µg/mL
Antibacterial activity (MIC) [10]: 0.25 µg/mL
Antibacterial activity (MIC) (E. coli UBMS 90-4 (tetM)): 0.5 µg/mL
Antibacterial activity (MIC) (E. coli J3272 Tet sens.): 0.5 µg/mL
Antibacterial activity (MIC) (E. coli J2175): 0.5 µg/mL
Antibacterial activity (MIC) [11]: 1 µg/mL
Antibacterial activity (MIC) (E. coli ATCC 25922): 0.5 µg/mL
Antibacterial activity (MIC) [12]: 0.25 µg/mL
Antibacterial activity (MIC) (E. coli J3272 TetD): 0.25 µg/mL
Antibacterial activity (MIC) [13]: 0.25 µg/mL
Antibacterial activity (MIC) (S. aureus NEMC 8769/89-4): 0.12 µg/mL
Antibacterial activity (MIC) [14]: 0.5 µg/mL
Antibacterial activity (MIC) (E. coli UBMS 90-5): 0.5 µg/mL
Antibacterial activity (MIC) (E. faecalis ATCC 29212): 0.12 µg/mL
Antibacterial activity (MIC) [15]: 1 µg/mL
ED50 (S. aureus SMITH (sens) [16]): 8 to 16 mg/kg
ED50 (S. aureus SMITH (sens) [17]): 0.5 to 1 mg/kg
Antibacterial activity (MIC) (E. coli J3272 TetC): 1 µg/mL
Antibacterial activity (MIC) [18]: 0.25 µg/mL
Antibacterial activity (MIC) (S. aureus ROSE (MP)): 1 µg/mL

CCCNCC(=O)Nc1cc(N(C)C)c2c(c1O)C(=O)C1=C(O)C3(O)C(=O)C(C(N)=O)=C(O)C(N(C)C)C3CC1C2.Cl.Cl (stereo not drawn) [WW, [4S-(4alpha,12aalpha)]-4,7-bis(dimethylamino)-1,4,4a,5,5a,6,11,12a-octahydro-3,10,12,12a-tetra-hydroxy-1,11-dioxo-9-[[(propylamino)acetyl]amino]-2-naphthacenecarboxamide dihydrochloride]
Antibacterial activity (MIC) [1]: 0.25 µg/mL
Antibacterial activity (MIC) [2]: 0.25 µg/mL
Antibacterial activity (MIC) [3]: 2 µg/mL
Antibacterial activity (MIC) [4]: 0.25 µg/mL
Antibacterial activity (MIC) (E. coli BAJ9003): 0.06 µg/mL
Antibacterial activity (MIC) (E. coli #311 (MP)): 0.25 µg/mL
% INHIBITION Wild Type S30 ([5]; 0.06 mg/ml): 93%
% INHIBITION Wild Type S30 ([5]; 0.2 mg/ml): 99%
% INHIBITION Wild Type S30 ([5]; 1.0 mg/ml): 99%
Antibacterial activity (MIC) [6]: 0.12 µg/mL
Antibacterial activity (MIC) (E. coli PRP1 TetA): 1 µg/mL
% INHIBITION TetM S30 ([7]; 0.06 mg/ml): 88%
% INHIBITION TetM S30 ([7]; 0.2 mg/ml): 97%
% INHIBITION TetM S30 ([7]; 1.0 mg/ml): 98%
Antibacterial activity (MIC) (S. mariescens FDOR 8733): 2 µg/mL
Antibacterial activity (MIC) (E. faecalis 12201): 0.12 µg/mL
Antibacterial activity (MIC) [8]: 0.25 µg/mL
Antibacterial activity (MIC) [9]: 8 µg/mL
Antibacterial activity (MIC) (E. coli MC4100 TetB): 0.25 µg/mL
Antibacterial activity (MIC) (E. coli UBMS 89-1 (tetM)): 0.25 µg/mL
Antibacterial activity (MIC) (E. coli UBMS 88-1 (tetB)): 0.25 µg/mL
Antibacterial activity (MIC) [10]: 0.12 µg/mL
Antibacterial activity (MIC) (E. coli UBMS 90-4 (tetM)): 0.25 µg/mL
Antibacterial activity (MIC) (E. coli J3272 Tet sens.): 0.25 µg/mL
Antibacterial activity (MIC) (E. coli J2175): 0.25 µg/mL
Antibacterial activity (MIC) [11]: 2 µg/mL
Antibacterial activity (MIC) (E. coli ATCC 25922): 0.25 µg/mL
Antibacterial activity (MIC) [12]: 0.25 µg/mL
Antibacterial activity (MIC) (E. coli J3272 TetD): 0.12 µg/mL
Antibacterial activity (MIC) [13]: 0.25 µg/mL
Antibacterial activity (MIC) (S. aureus NEMC 8769/89-4): 0.06 µg/mL
Antibacterial activity (MIC) [14]: 0.5 µg/mL
Antibacterial activity (MIC) (E. coli UBMS 90-5): 0.25 µg/mL
Antibacterial activity (MIC) (E. faecalis ATCC 29212): 0.25 µg/mL
Antibacterial activity (MIC) [15]: 1 µg/mL
ED50 (S. aureus SMITH (sens) [16]): >16 mg/kg
ED50 (S. aureus SMITH (sens) [17]): 0.82 mg/kg
Antibacterial activity (MIC) (E. coli J3272 TetC): 0.25 µg/mL
Antibacterial activity (MIC) [18]: 0.12 µg/mL
Antibacterial activity (MIC) (S. aureus ROSE (MP)): 2 µg/mL

CCCCCCNCC(=O)Nc1cc(N(C)C)c2c(c1O)C(=O)C1=C(O)[C@]3(O)C(=O)C(C(N)=O)=C(O)[C@@H](N(C)C)C3CC1C2 (stereo partly drawn) [BBB, [4S-(4alpha,12aalpha)]-4,7-Bis(dimethylamino)-9-[[(hexylamino)acetyl]amino]-1,4,4a,5,5a,6,11,12a-octahydro-3,10,12,12a-tetrahydroxy-1,11-dioxo-2-naphthacenecarboxamide dihydrochloride]
Antibacterial activity (MIC) [1]: 0.25 µg/mL
Antibacterial activity (MIC) [2]: 0.25 µg/mL
Antibacterial activity (MIC) [3]: 4 µg/mL
Antibacterial activity (MIC) [4]: 0.5 µg/mL
Antibacterial activity (MIC) (E. coli BAJ9003): 0.06 µg/mL
Antibacterial activity (MIC) (E. coli #311 (MP)): 0.5 µg/mL
Antibacterial activity (MIC) [6]: 0.12 µg/mL
Antibacterial activity (MIC) (E. coli PRP1 TetA): 0.5 µg/mL
Antibacterial activity (MIC) (S. mariescens FDOR 8733): 4 µg/mL
Antibacterial activity (MIC) (E. faecalis 12201): 0.25 µg/mL
Antibacterial activity (MIC) [8]: 0.25 µg/mL
Antibacterial activity (MIC) [9]: 16 µg/mL
Antibacterial activity (MIC) (E. coli MC4100 Tet sens.): 0.25 µg/mL
Antibacterial activity (MIC) (E. coli MC4100 TetB): 0.5 µg/mL
Antibacterial activity (MIC) (E. coli UBMS 89-1 (tetM)): 0.25 µg/mL
Antibacterial activity (MIC) (E. coli UBMS 88-1 (tetB)): 0.5 µg/mL
Antibacterial activity (MIC) [10]: 0.06 µg/mL
Antibacterial activity (MIC) (E. coli UBMS 90-4 (tetM)): 0.25 µg/mL
Antibacterial activity (MIC) (E. coli J2175): 0.25 µg/mL
Antibacterial activity (MIC) [11]: 4 µg/mL
Antibacterial activity (MIC) (E. coli ATCC 25922): 0.12 µg/mL
Antibacterial activity (MIC) [12]: 0.25 µg/mL
Antibacterial activity (MIC) (E. coli J3272 TetD): 0.12 µg/mL
Antibacterial activity (MIC) [13]: 0.5 µg/mL
Antibacterial activity (MIC) (S. aureus NEMC 8769/89-4): 0.06 µg/mL
Antibacterial activity (MIC) [14]: 4 µg/mL
Antibacterial activity (MIC) (E. coli UBMS 90-5): 0.25 µg/mL
Antibacterial activity (MIC) (E. faecalis ATCC 29212): 0.12 µg/mL
Antibacterial activity (MIC) [15]: 2 µg/mL
ED50 (S. aureus SMITH (sens) [16]): 4 to 8 mg/kg
ED50 (S. aureus SMITH (sens) [17]): 1.8 mg/kg
Antibacterial activity (MIC) (E. coli J3272 TetC): 0.5 µg/mL
Antibacterial activity (MIC) [18]: 0.25 µg/mL
Antibacterial activity (MIC) (S. aureus ROSE (MP)): 16 µg/mL
